For experiment [1], the target named is T1, Type I 5α-Reductase from Human Scalp (Homo sapiens, UniProt P18405).
T1 construct: Scalp punch biopsies from graft recipient sites were obtained from human hair transplant procedures; from tissue; host or cells: human scalp punch biopsies (hair transplant graft recipient sites), homogenate, 100,000×g pellet
T1 sequence (P18405 1-259): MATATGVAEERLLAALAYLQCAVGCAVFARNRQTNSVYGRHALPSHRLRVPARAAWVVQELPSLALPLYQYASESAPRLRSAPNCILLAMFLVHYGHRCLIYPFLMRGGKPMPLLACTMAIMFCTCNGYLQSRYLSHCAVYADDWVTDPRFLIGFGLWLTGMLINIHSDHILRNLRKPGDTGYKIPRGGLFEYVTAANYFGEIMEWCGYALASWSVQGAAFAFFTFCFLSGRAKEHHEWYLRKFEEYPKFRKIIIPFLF
Briefly: Human Type I 5α-reductase assay (conversion of [3H]-testosterone to 5α-reduced metabolites). It counts as biochemical. The note with it: pH 7.5, 0.3 μM; 50 nM [3H]-testosterone, pH 7.5, 25°, 180 min; compared to control reaction mixtures; read-out: percent inhibition of Type I AR.

In experiment [2] the target is T2, Type II 5α-Reductase from Human Prostate (Homo sapiens, UniProt P31213).
T2 construct: The same procedure as above was used for preparations using tissue from prostate surgery; from tissue; host or cells: human prostate tissue from surgery, homogenate, 100,000×g pellet
T2 sequence (P31213 1-254): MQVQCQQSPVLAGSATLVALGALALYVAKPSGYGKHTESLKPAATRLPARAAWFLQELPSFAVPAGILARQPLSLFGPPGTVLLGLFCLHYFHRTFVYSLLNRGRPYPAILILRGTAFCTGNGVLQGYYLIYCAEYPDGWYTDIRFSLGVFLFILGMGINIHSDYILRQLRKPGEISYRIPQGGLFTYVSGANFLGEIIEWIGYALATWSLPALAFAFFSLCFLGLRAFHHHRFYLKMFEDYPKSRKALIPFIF
Briefly: Human Type II 5α-reductase assay (conversion of [3H]-testosterone to 5α-reduced metabolites). It counts as biochemical. To be noted: sodium acetate pH 5.5, 25°, 30 min, compared to control reaction mixtures; for inhibition at 0.3 µM: pH 5.5, 0.3 μM, read-out: percent inhibition of Type II AR; for percent inhibition of Type II AR: 0.3 μM.

One may read the inhibition as the relative decrease from the control value, in per cent.

`CN1C(=O)CC[C@]2(C)c3ccc(Sc4ccc5c([N+](=O)[O-])cccc5n4)cc3CC[C@@H]12` [Example 169, (+)-(4aR)-(10bR)-4-methyl-8-(5-nitro-2-quinolinylthio)-10b-methyl-1,2,3,4,4a,5,6,10b-octahydrobenzo[f]quinolin-3-one]: the inhibition at 0.3 µM in experiment [1] turned out to be 75%; in experiment [2] it was 61%.
Regarding `CN1C(=O)CC[C@]2(C)c3ccc(Sc4ccc(-c5ccccc5)nn4)cc3CC[C@@H]12` [Example 171, (+)-(4aR)-(10bR)-4-methyl-8-(6-phenyl-3-pyridazinylthio)-10b-methyl-1,2,3,4,4a,5,6,10b-octahydrobenzo[f]quinolin-3-one], the inhibition at 0.3 µM in experiment [1] was determined as 43%; in experiment [2] it was 63%.
As to `CN1C(=O)CC[C@]2(C)c3ccc(Sc4nc(-c5ccccc5)nc5ccccc45)cc3CC[C@@H]12` [Example 172, (+)-(4aR)-(10bR)-4-methyl-8-(2-phenyl-4-quinazolinylthio)-10b-methyl-1,2,3,4,4a,5,6,10b-octahydrobenzo[f]quinolin-3-one], the figures for the inhibition at 0.3 µM in experiment [1] and in experiment [2] were 55% and 36%, respectively.
Regarding `CN1C(=O)CC[C@]2(C)c3ccc(Sc4ccc5cc(F)ccc5n4)cc3CC[C@@H]12` [Example 173, (+)-(4aR)-(10bR)-4-methyl-8-(6-fluoro-2-quinolinylthio)-10b-methyl-1,2,3,4,4a,5,6,10b-octahydrobenzo[f]quinolin-3-one], the inhibition at 0.3 µM in experiment [1] came out at 65%. In addition, in experiment [2], the “percent inhibition of Type II AR” value is recorded as 77% and the inhibition at 0.3 µM was found to be 78%.
As for `CN1C(=O)CC[C@]2(C)c3ccc(Sc4ccc5cccc(F)c5n4)cc3CC[C@@H]12` [Example 174, (+)-(4aR)-(10bR)-4-methyl-8-(8-fluoro-2-quinolinylthio)-10b-methyl-1,2,3,4,4a,5,6,10b-octahydrobenzo[f]quinolin-3-one], the inhibition at 0.3 µM was determined as 82% in experiment [1] and 80% in experiment [2].
Consider `CN1C(=O)CC[C@]2(C)c3ccc(Sc4nccc5sccc45)cc3CC[C@@H]12` [Example 175, (+)-(4aR)-(10bR)-4-methyl-8-(4-thieno [3,2-c]pyridylthio)-10b-methyl-1,2,3,4,4a,5,6,10b-octahydrobenzo[f]quinolin-3-on], for which the figures for the inhibition at 0.3 µM in experiment [1] and in experiment [2] were 58% and 40%, respectively.
For the molecule `CN1C(=O)CC[C@]2(C)c3ccc(Sc4ccc5nc6ccccc6c(=O)n5n4)cc3CC[C@@H]12` [Example 176, (+)-(4aR)-(10bR)-4-methyl-8-(10-oxo-10H-2-pyridazino[6,1-b]-quinazolinylthio)-10b-methyl-1,2,3,4,4a,5,6,10b-octahydrobenzo[f]quinolin-3-one], the results for the inhibition at 0.3 µM in experiment [1] and in experiment [2] were 25% and 15%, respectively.
For `CN1C(=O)CC[C@]2(C)c3ccc(Sc4nc(-c5ccccc5)cc5ccccc45)cc3CC[C@@H]12` [Example 177, (+)-(4aR)-(10bR)-4-methyl-8-(3-phenyl-1-isoquinolinylthio)-10b-methyl-1,2,3,4,4a,5,6,10b-octahydrobenzo[f]quinolin-3-one] the same measures were 58% and 15%.
For the molecule `COc1ccc(-c2c(-c3ccccc3)c(Sc3ccc4c(c3)CC[C@H]3N(C)C(=O)CC[C@]43C)nc3ccccc23)cc1` [Example 179, (+)-(4aR)-(10bR)-4-methyl-8-[3-phenyl-4-(4-methoxyphenyl)-2-quinolinylthio]-10b-methyl-1,2,3,4,4a,5,6, 10b-octahydrobenzo[f]quinolin-3-one], the inhibition at 0.3 µM was determined as 61% in experiment [1] and 28% in experiment [2].
In the case of `CN1C(=O)CC[C@]2(C)c3ccc(Sc4nsc5ccccc45)cc3CC[C@@H]12` [Example 180, (+)-(4aR)-(10bR)-4-methyl-8-(3-[1,2-benzisothiazolyl]thio)-10b-methyl-1,2,3,4,4a,5,6,10b-octahydrobenzo[f]quinolin-3-one], the inhibition at 0.3 µM in experiment [1] was 59%; in experiment [2], 30%.
On to `CN1C(=O)CC[C@]2(C)c3ccc(Sc4cc(-c5ccccc5)cc(-c5ccccc5)n4)cc3CC[C@@H]12` [Example 181, (+)-(4aR)-(10bR)-4-methyl-8-(2-[4,6-diphenyl]pyridylthio)-10b-methyl-1,2,3,4,4a,5,6,10b-octahydrobenzo[f]quinolin-3-one], for which the inhibition at 0.3 µM in experiment [1] stood at 63%; in experiment [2] it was 31%.
Take `COc1cccc2sc(Sc3ccc4c(c3)CC[C@H]3N(C)C(=O)CC[C@]43C)nc12` [Example 182, (+)-(4aR)-(10bR)-4-methyl-8-(4-methoxy-2-benzothiazolylthio)-10b-methyl-1,2,3,4,4a,5,6,10b-octahydrobenzo[f]quinolin-3-one]: the inhibition at 0.3 µM in experiment [1] was 63%; in experiment [2], 100%.
For the molecule `CN1C(=O)CC[C@]2(C)c3ccc(Sc4nc5c(Br)cccc5s4)cc3CC[C@@H]12` [Example 183, (+)-(4aR)-(10bR)-4-methyl-8-(4-bromo-2-benzothiazolylthio)-10b-methyl-1,2,3,4,4a,5,6,10b-octahydrobenzo[f]quinolin-3-one], the inhibition at 0.3 µM in experiment [1] was found to be 89%. Besides, in experiment [2], the “percent inhibition of Type II AR” value came out at 87% and the inhibition at 0.3 µM turned out to be 88%.
For `CN1C(=O)CC[C@]2(C)c3ccc(Sc4nc5c(-c6ccccc6)cccc5s4)cc3CC[C@@H]12` [Example 184, (+)-(4aR)-(10bR)-4-methyl-8-(4-phenyl-2-benzothiazolylthio)-10b-methyl-1,2,3,4,4a,5,6,10b-octahydrobenzo[f]quinolin-3-one], the inhibition at 0.3 µM in experiment [1] was 73%; in experiment [2] it was 81%.
Take `Cc1ccc(C)c2sc(Sc3ccc4c(c3)CC[C@H]3N(C)C(=O)CC[C@]43C)nc12` [Example 185, (+)-(4aR)-(10bR)-4-methyl-8-(4,7-dimethyl-2-benzothiazolylthio)-10b-methyl-1,2,3,4,4a,5,6,10b-octahydrobenzo[f]-quinolin-3-one]: the results for the inhibition at 0.3 µM in experiment [1] and in experiment [2] were 88% and 90%, respectively.
As to `CCCc1cccc2sc(Sc3ccc4c(c3)CC[C@H]3N(C)C(=O)CC[C@]43C)nc12` [Example 186, (+)-(4aR)-(10bR)-4-methyl-8-(4-propyl-2-benzothiazolylthio)-10b-methyl-1,2,3,4,4a,5,6,10b-octahydrobenzo[f]quinolin-3-one], the figures for the inhibition at 0.3 µM in experiment [1] and in experiment [2] were 90% and 79%, respectively.
For `CCc1cccc2sc(Sc3ccc4c(c3)CC[C@H]3N(C)C(=O)CC[C@]43C)nc12` [Example 187, (+)-(4aR)-(10bR)-4-methyl-8-(4-ethyl-2-benzothiazolylthio)-10b-methyl-1,2,3,4,4a,5,6,10b-octahydrobenzo[f]quinolin-3-one] the same measures were 93% and 94%.
In the case of `CN1C(=O)CC[C@]2(C)c3ccc(Sc4nc5c(OC(F)(F)F)cccc5s4)cc3CC[C@@H]12` [Example 188, (+)-(4aR)-(10bR)-4-methyl-8-(4-trifluoromethoxy-2-benzothiazolylthio)-10b-methyl-1,2,3,4,4a,5,6,10b-octahydrobenzo[f]-quinolin-3-one], the results for the inhibition at 0.3 µM in experiment [1] and in experiment [2] were 88% and 78%, respectively.

These data come from patent US5622962A, “5α-reductase inhibitors” (priority 1995, dated 1997).
